Measurements: patent US12297186B2, “Benzylamide derivatives as inhibitors of transforming growth factor-beta receptor I/ALK5” (AGOMAB SPAIN, S.L.U., priority 2019, dated 2025)
Where two headings read alike, the source gives them in different places.

Legend:
[1] = rats; cited from earlier work
[2] = biological target: Human TGFβR-1 kinase (Homo sapiens (Human), UniProt P36897); assay: In vitro enzyme assay: inhibition of TGFβR-1 kinase activity (ADP-Glo); assay type: biochemical; details: TGFβR-1 kinase, 50 μM ATP; read-out: IC50 range
Experimental: In Vitro Enzyme Assay: Inhibition of TGFβR-1Kinase Activity
Human TGFβl R-1 inhibition experiments were carried out in a white 384-microplate low flange (Corning 3572) with ADP-Glo kinase Assay Kit (Promega V9101) and TGβR-1 Kinase Enzyme System (Promega V4092). […] The reaction mixture was incubated in gentle shaking for 120 min at RT, after incubation of 10 μL of ADP-Glo Reagent was added and incubated in gentle shaking for 40 min at RT. 20 μL of Kinase Detection Reagent was added and plate was incubated in gentle shaking for 30 min at RT. Luminiscence (1000 ms) was measured in Perkin Elmer EnSpire Multimode plate reader.

[3] = biological target: TGF-beta kinase (ALK-5) (Homo sapiens (Human), UniProt P36897); assay: Determination of the intracellular TGF-beta kinase activity (ALK-5), p-SMAD3 AlphaLISA in A549 cells; assay type: cell-based; details: A549 cell line, TGF-β2 activated, p-SMAD3; read-out: IC50 range
Experimental: Determination of the Intracellular TGF-beta Kinase Activity (ALK-5)
The experiments were carried out in A549 cell line. 30000 cells were seeded in 200 μl of culture medium (Sigma D6046) supplemented with L-Glutamine (Sigma G7513), Penicillin/Streptomycin (Invitrogen 11058) and FBS (Sigma F9665) on a 96 wells microplate (Becton Dickinson 353072). After 16 hours medium waschanged to serum free medium.

[4] = Plasma pharmacokinetic assay, single oral administration; assay type: in vivo, male Sprague Dawley rats; details: rat, P.O., 5 mg/kg
Experimental: Plasma Pharmacokinetic Assay
The objective of this study was to investigate the plasma pharmacokinetics of some compounds of the present invention in male Sprague Dawley rats following a single oral administration. Three rats per compound were used in this study. Animals were administered with suspension formulation of each compound in 0.5% Tween-80 and 99.5% NaCMC (0.5% w/v in RO Water) by oral route at 5 mg/kg. The blood samples were collected from set of three rats at each time point in labelled micro centrifuge tube containing K2EDTA solution as anticoagulant at 0.25, 0.5, 1, 2, 4, 6, 8, 12 and 24 hr (p.o.). Plasma samples were separated by centrifugation of whole blood and stored below −70±10° C. until bioanalysis. All samples were processed for analysis by protein precipitation using acetonitrile and analysed with fit-for-purpose LC-MS/MS method (LLOQ=1.01 ng/mL). Pharmacokinetic parameters were calculated using the non-compartmental analysis tool of Phoenix WinNonlin® (Version 7.0).

[5] = Metabolic stability assay, rat microsomes; assay type: in vitro ADME; details: for microsomal CLint: rat recombinant microsomes (Tebu-Xenotech), pH 7.4
Experimental: (§1) Metabolic Stability Assay
(§2) Human and rat recombinant microsomes from Tebu-Xenotech were employed in the assay. They content 0.5 mg/ml of protein. The following quantities were added to each well of a 96-well microplate.
(§3) Plates were incubated at 37° C. and 75 μL samples were taken at 0, 10, 20, 40 and 60 minutes. Samples were transferred to a microplate and 75 μl Acetonitrile were added for inactivating the microsomes, and 30 μl of H2O for improving the chromatographic conditions and kept at 4° C. When all the samples were taken the plate was centrifuged at […] for 30 min at 15° C. Supernatant was taken and injected in the UPLC-MS/MS.
(§4) Stationary phase: Reverse phase Acquity UPLC® BEH C18 1.7 μm (2.1 mm×50 mm) (Waters). Mobile phase: A: 0.1% formic; B:acetonitrile+0.1% formic acid. Flow: 0.6 ml/min. The chromatographic equipment employed was an UPLC QSM Waters Acquity. Compound concentrations were calculated from the UV peak areas. The response was linear in the range between 10 ng/ml and 0.3125 ng/ml. Metabolic stability was calculated from the logarithm of the remaining compound at each of the times evaluated.
(§5) The data will be fitted to the one phase exponential decay equation using GraphPad Prism® software. The half-life (t1/2) generated by the software will be reported. Intrinsic clearance will be calculated using the formula where, k=decay rate constant (min^−1).

[6] = Metabolic stability assay, human microsomes; assay type: in vitro ADME; details: for microsomal CLint: human recombinant microsomes (Tebu-Xenotech)
Experimental: as §1, §2, §3, §4, §5

[7] = Identification study of metabolite; assay type: in vitro ADME
Text: In an identification study of metabolite was identified Compound A. Said compound is 2-(3-(6-methylpyridin-2-yl)-4-(quinolin-4-yl)-1H-pyrazol-1-yl)acetic acid and has the following formula: […]
Compound A was identified as the major metabolite of examples 9, 15, 20, 22, 24 and 26, among others.

[8] = biological target: ALK4 (Homo sapiens (Human), UniProt P36896); details: cited from earlier work
[9] = biological target: MINK (Homo sapiens (Human), UniProt Q8N4C8); details: cited from earlier work
[10] = biological target: TGFβRII (Homo sapiens (Human), UniProt P37173); details: cited from earlier work
[11] = biological target: ALK6 (Homo sapiens (Human), UniProt O00238); details: cited from earlier work
[12] = biological target: ACVR2B (Homo sapiens (Human), UniProt Q13705); details: cited from earlier work
[13] = in vivo; cited from earlier work
[14] = rats; cited from earlier work; remark: listed apart in the source
[15] = dogs; cited from earlier work
[16] = system: myelofibrosis (MF); details: mouse models; cited from earlier work
[17] = system: human pancreatic cancer; details: systemic administration; cited from earlier work
[18] = system: heart valves; details: rats, all doses tested; cited from earlier work
[19] = male, Sprague-Dawley, po, plasma

Sequence of Human TGFβR-1 kinase (P36897 34-503): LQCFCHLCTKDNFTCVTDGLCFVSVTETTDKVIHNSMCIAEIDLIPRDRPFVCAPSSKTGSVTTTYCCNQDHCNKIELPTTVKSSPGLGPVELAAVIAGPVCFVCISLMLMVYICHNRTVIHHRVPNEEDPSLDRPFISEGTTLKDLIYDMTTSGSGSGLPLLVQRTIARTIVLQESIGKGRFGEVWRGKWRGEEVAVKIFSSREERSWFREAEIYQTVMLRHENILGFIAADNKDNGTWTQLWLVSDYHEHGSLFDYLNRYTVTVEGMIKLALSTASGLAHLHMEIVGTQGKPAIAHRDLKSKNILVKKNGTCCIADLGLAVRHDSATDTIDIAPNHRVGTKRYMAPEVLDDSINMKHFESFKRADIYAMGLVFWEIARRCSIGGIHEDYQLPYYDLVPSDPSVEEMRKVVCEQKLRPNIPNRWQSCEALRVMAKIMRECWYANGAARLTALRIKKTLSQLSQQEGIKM
Sequence of TGF-beta kinase (ALK-5) (P36897 34-503): as above
Sequence of ALK4 (P36896 24-505, species assumed): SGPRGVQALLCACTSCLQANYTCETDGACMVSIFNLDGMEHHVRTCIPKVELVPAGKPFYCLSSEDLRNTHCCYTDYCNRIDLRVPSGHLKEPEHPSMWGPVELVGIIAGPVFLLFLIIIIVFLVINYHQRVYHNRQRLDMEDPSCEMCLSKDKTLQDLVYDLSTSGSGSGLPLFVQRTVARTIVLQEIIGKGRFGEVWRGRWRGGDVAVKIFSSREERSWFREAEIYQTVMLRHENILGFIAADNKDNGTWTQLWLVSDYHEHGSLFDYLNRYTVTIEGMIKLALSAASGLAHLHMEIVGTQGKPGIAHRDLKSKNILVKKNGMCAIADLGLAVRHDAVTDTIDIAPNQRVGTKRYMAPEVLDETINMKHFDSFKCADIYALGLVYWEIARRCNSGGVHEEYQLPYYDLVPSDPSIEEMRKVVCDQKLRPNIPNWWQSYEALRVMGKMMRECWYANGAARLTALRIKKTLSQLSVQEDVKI
Sequence of MINK (Q8N4C8 whole entry): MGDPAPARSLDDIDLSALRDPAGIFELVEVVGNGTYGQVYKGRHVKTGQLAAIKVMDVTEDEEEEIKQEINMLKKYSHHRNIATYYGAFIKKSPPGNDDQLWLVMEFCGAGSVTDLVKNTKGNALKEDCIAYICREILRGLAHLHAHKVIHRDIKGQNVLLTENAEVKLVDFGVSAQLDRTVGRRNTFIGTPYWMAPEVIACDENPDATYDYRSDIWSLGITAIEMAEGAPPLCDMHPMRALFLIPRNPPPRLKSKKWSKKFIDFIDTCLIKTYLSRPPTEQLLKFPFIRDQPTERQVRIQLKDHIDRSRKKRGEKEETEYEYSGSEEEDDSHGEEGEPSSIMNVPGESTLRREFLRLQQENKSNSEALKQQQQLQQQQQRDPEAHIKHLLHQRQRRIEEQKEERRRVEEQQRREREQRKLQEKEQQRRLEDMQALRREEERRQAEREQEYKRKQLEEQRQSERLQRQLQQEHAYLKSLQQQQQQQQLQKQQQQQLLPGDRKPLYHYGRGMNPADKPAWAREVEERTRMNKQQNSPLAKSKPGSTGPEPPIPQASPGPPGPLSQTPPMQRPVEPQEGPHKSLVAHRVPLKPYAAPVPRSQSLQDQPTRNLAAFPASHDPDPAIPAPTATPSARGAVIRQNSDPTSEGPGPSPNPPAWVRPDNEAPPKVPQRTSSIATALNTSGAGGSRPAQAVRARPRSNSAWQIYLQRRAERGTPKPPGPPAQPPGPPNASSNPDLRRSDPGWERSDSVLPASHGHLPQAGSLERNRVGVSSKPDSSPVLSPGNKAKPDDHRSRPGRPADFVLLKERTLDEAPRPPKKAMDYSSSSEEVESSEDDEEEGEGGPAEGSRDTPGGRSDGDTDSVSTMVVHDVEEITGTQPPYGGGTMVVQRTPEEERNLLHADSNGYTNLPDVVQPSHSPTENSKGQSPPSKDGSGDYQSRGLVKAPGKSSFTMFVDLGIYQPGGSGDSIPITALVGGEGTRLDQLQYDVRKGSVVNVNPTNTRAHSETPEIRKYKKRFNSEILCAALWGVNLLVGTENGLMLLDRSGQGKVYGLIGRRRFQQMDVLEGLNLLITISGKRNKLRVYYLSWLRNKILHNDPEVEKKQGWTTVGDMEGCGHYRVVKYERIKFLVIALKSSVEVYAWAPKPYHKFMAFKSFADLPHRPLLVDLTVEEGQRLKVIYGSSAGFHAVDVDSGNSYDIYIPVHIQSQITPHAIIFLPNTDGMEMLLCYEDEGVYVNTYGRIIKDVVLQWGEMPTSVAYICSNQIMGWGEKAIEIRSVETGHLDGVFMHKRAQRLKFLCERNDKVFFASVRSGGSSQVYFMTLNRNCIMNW
Sequence of ACVR2B (Q13705 19-512, species assumed): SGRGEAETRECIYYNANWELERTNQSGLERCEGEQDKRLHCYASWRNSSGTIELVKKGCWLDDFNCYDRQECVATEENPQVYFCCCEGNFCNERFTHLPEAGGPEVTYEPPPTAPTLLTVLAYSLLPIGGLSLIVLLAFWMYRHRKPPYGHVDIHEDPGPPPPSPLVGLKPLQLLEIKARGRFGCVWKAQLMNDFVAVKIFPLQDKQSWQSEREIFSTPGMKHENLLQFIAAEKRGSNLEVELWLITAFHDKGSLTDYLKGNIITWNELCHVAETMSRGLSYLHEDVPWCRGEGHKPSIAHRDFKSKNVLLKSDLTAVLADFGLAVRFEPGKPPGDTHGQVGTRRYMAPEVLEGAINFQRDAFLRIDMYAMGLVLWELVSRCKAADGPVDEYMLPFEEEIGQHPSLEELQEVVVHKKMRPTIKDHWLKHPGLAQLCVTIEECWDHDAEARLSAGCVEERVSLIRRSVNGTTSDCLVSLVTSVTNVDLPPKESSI
Sequence of TGFβRII (P37173 23-567): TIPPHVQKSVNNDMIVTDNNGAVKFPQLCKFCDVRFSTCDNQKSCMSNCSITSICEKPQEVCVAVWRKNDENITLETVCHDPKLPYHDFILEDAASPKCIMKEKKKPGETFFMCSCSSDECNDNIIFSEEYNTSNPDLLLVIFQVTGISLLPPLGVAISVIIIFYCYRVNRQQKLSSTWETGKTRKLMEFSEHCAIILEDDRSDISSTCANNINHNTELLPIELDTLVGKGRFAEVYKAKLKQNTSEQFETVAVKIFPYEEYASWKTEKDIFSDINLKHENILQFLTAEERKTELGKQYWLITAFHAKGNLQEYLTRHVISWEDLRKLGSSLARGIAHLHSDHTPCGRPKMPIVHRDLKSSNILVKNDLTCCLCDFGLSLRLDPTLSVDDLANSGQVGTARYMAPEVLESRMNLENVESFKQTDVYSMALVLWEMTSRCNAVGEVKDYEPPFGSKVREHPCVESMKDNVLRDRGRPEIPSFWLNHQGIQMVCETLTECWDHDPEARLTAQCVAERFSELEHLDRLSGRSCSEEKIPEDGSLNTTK
Sequence of ALK6 (O00238 14-502): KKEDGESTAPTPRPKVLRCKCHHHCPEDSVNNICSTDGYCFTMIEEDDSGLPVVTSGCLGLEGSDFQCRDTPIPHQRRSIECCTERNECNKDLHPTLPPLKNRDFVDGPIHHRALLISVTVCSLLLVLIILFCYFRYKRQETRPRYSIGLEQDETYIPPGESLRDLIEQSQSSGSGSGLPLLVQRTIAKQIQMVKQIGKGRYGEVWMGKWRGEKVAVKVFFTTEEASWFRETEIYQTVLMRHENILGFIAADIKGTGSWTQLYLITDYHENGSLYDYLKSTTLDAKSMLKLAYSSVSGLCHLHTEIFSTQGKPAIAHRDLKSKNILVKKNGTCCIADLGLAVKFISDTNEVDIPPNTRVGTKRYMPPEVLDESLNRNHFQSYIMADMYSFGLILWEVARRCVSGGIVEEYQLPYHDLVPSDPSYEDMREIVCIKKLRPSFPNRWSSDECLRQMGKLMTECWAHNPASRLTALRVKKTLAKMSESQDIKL

SMILES: Cc1cccc(-c2[nH]c(CNc3ccccc3F)nc2-c2ccc3ncnn3c2)n1 [EW-7197]
- oral bioavailability [1]: 51%

SMILES: Cc1cccc(-c2nn(CC(=O)NCc3ccccc3Cl)cc2-c2ccnc3ccccc23)n1 [Example 22, N-(2-chlorobenzyl)-2-(3-(6-methylpyridin-2-yl)-4-(quinolin-4-yl)-1H-pyrazol-1-yl)acetamide]
- IC50 [2]: < 100 nM
- IC50 [3]: < 100 nM
- AUC(0-inf) [4, 19]: 15.3 ng·h/mL
- AUC(0-t) [4, 19]: 13.7 ng·h/mL
- Cmax [4, 19]: 20 ng/mL
- Tmax [4, 19]: 19.8 min
- % remanent (sampling time 60 min) [5]: 0.14%
- microsomal CLint [5]: 644 µL/min/mg
- % remanent (sampling time 60 min) [6]: 0.03%
- microsomal CLint [6]: 378 µL/min/mg
- Major metabolite identified [7]: Compound A

SMILES: Cc1cccc(-c2nn3c(c2-c2ccnc4ccc(C(N)=O)cc24)CCC3)n1 [Galunisertib]
- IC50 [8]: 770 nM
- IC50 MINK [9]: submicromolar
- IC50 TGFβRII [10]: submicromolar
- IC50 ALK6 [11]: submicromolar
- IC50 ACVR2B [12]: submicromolar
- oral bioavailability [13]: orally bioavailable
- Major target organs for toxicity [14]: the heart and great vessels
- Major target organs for toxicity [15]: the heart and great vessels
- Effect on myelofibrosis [16]: significantly improved MF

SMILES: c1ccc(-c2nn3c(c2-c2ccnc4cc(OCCN5CCOCC5)ccc24)CCC3)nc1 [LY2109761]
- Effect on metastasis [17]: suppresses liver and other abdominal site metastasis

SMILES: Cc1ccc(Oc2ccnc(Nc3ccc(S(N)(=O)=O)cc3)c2)c(C)n1 [AZ12799734]
- Histopathology finding in heart [18]: heart valve lesions

SMILES: c1ccc(-c2nc3c(c(-n4ccc5cnccc54)n2)CCC3)nc1 [AZ12601011]
- Histopathology finding in heart [18]: heart valve lesions

SMILES: Cc1cccc(-c2nn(CC(=O)NCc3c(F)cccc3F)cc2-c2ccnc3ccccc23)n1 [Example 24, N-(2,6-difluorobenzyl)-2-(3-(6-methylpyridin-2-yl)-4-(quinolin-4-yl)-1H-pyrazol-1-yl)acetamide]
- IC50 [2]: < 100 nM
- IC50 [3]: < 100 nM
- Plasma concentrations quantifiable (PK parameters not calculable) ([4]; LLOQ 1.01 ng/mL): Concentrations were quantifiable only at 0.25
- % remanent (sampling time 60 min) [5]: 0.01%
- microsomal CLint [5]: 360 µL/min/mg
- % remanent (sampling time 60 min) [6]: 0.05%
- microsomal CLint [6]: 307 µL/min/mg
- Major metabolite identified [7]: Compound A

SMILES: Cc1cccc(-c2nn(CC(=O)NCc3c(C)cccc3C)cc2-c2ccnc3ccccc23)n1 [Example 26, N-(2,6-dimethylbenzyl)-2-(3-(6-methylpyridin-2-yl)-4-(quinolin-4-yl)-1H-pyrazol-1-yl)acetamide]
- IC50 [2]: < 100 nM
- IC50 [3]: 100 to 500 nM
- % remanent (sampling time 60 min) [5]: 0.08%
- microsomal CLint [5]: 826 µL/min/mg
- % remanent (sampling time 60 min) [6]: 0.05%
- microsomal CLint [6]: 622 µL/min/mg
- Major metabolite identified [7]: Compound A
